Values after ≈ are worked out from the molar mass of the structure shown. Read-outs that look alike come from different tables or passages of the source.
What was measured:
[1] = Cytotoxicity against mock-infected MT-4 cells (MTT); type: cell-based, human; conditions: human, concentration reducing viability of mock-infected MT-4 cells by 50%
Method: (§1) Cell line supporting the multiplication of Human Immunodeficiency Virus type-1 (HIV-1) was the CD4+ human T-cells, derived from human hematological tumors, containing an integrated HTLV-1 genome (MT-4). Cells were purchased from American Type Culture Collection (ATCC). Human Immunodeficiency Virus type-1 (HIV-1) IIIB laboratory strain was obtained from the supernatant of the persistently infected H9/IIIB cells (NIH 1983).
Exponentially growing MT-4 cells were seeded at an initial density of 1 × 10^5 cells/mL in 96-well plates in RPMI-1640 medium, supplemented with 10% fetal bovine serum (FBS), 100 units/mL penicillin G and 100 μg/mL streptomycin. Cell cultures were then incubated at 37 °C in a humidified, 5% CO2 atmosphere, in the absence or presence of serial dilutions of tested compounds. Cell viability was determined after 96 h at 37 °C by the 3-(4,5-dimethylthiazol-2-yl)-2,5-diphenyl-tetrazolium bromide (MTT) method.

HIV-1 IIIB = experiment: Anti-HIV-1 activity: protection of MT-4 cells from virus-induced cytopathogenicity (MTT); type: cell-based, Human Immunodeficiency Virus type-1; conditions: Human immunodeficiency virus 1, IIIB, MT4, 96 h, read-out: HIV-1IIIB EC50
Excerpt: as §1
The activity of compounds against HIV-1 was based on inhibition of virus-induced cytopathogenicity in MT-4 cell acutely infected with a multiplicity of infection (m.o.i.) of 0.01. Briefly, 50 μL of RPMI containing 1 × 10^4 MT-4 cells were added to each well of flat-bottom microtiter trays, containing 50 μL of RPMI without or with serial dilutions of test compounds. Then, 20 μL of a HIV-1 suspension containing 100 CCID50 were added. After a 4-day incubation at 37 °C, cell viability was determined by the MTT method.

B. cereus ATCC 11778 = experiment: MIC, twofold serial microdilution; type: cell-based; conditions: Bacillus cereus, ATCC11778; standard strain, 18 h, 35 °C
Method: (§2) The antimicrobial activity of the compounds was tested on Gram-positive bacteria (Staphylococcus aureus NCTC 4163, Staphylococcus aureus ATCC 25923, Staphylococcus aureus ATCC 6538, Staphylococcus aureus ATCC 29213, Staphylococcus epidermidis ATCC 12228, Staphylococcus epidermidis ATCC 35984, Enterococcus faecalis ATCC 29212, Bacillus subtilis ATCC 6633, Bacillus cereus ATCC 11778, Micrococcus luteus ATCC 9341, Micrococcus luteus ATCC 10240); Gram-negative rods (Escherichia coli ATCC 10538, Escherichia coli ATCC 25922, Escherichia coli NCTC 8196, Proteus vulgaris NCTC 4635, Pseudomonas aeruginosa ATCC 15442, Pseudomonas aeruginosa NCTC 6749, Pseudomonas aeruginosa ATCC 27863, Bordetella bronchiseptica ATCC 4617) and yeasts (Candida albicans ATCC 10231, Candida albicans ATCC 90028, Candida parapsilosis ATCC 22019). Other microorganisms used were obtained from the collection of the Department of Pharmaceutical Microbiology, Medical University of Warsaw, Poland.
(§3) Antibacterial activity was examined by the disc-diffusion method under standard conditions using Mueller-Hinton II agar medium (Becton Dickinson) according to CLSI (previously NCCLS) guidelines. Antifungal activities were assessed using Mueller-Hinton agar + 2% glucose and 0.5 µg/mL Methylene Blue Dye Medium. Sterile filter paper discs (9 mm diameter, Whatman No 3 chromatography paper) were dripped with tested compound solutions (in DMSO) to load 400 μg of a given compound per disc. Dry discs were placed on the surface of appropriate agar medium. The results (diameter of the growth inhibition zone) were read after 18 h of incubation at 35 °C. Minimal Inhibitory Concentration (MIC) was tested by the twofold serial microdilution method (in 96-well microtiter plates) using Mueller-Hinton Broth medium (Beckton Dickinson) for bacteria or RPMI-1640 medium for Candida species according to CLSI guidelines. The stock solution of tested agent was prepared in DMSO and diluted in sterile water. Concentrations of tested agents ranged from 0.125 to 512 µg/mL. The final inoculum of all studied microorganisms was 10^5 CFU/ mL^−1 (colony forming units per mL). Minimal inhibitory concentrations (the lowest concentration of a tested agent that prevents visible growth of a microorganism) were read after 18 h (bacteria) or 24 h (yeasts) of incubation at 35 °C.

B. subtilis ATCC 6633 = experiment: MIC, twofold serial microdilution; type: cell-based; conditions: Bacillus subtilis, ATCC6633; standard strain, 18 h, 35 °C
Method: as §2, §3

E. faecalis ATCC 29212 = experiment: MIC, twofold serial microdilution; type: cell-based; conditions: Enterococcus faecalis, ATCC29212; standard strain, 18 h, 35 °C
Method: as §2, §3

M. luteus ATCC 10240 = experiment: MIC, twofold serial microdilution; type: cell-based; conditions: Micrococcus luteus, ATCC10240; standard strain, 18 h, 35 °C
Method: as §2, §3

M. luteus ATCC 9341 = experiment: MIC, twofold serial microdilution; type: cell-based; conditions: Micrococcus luteus, ATCC9341; standard strain, 18 h, 35 °C
Method: as §2, §3

S. aureus ATCC 25923 = experiment: MIC, twofold serial microdilution; type: cell-based; conditions: Staphylococcus aureus, ATCC25923; standard strain, 18 h, 35 °C
Method: as §2, §3

S. aureus ATCC 29213 = experiment: MIC, twofold serial microdilution; type: cell-based; conditions: Staphylococcus aureus, ATCC29213; standard strain, 18 h, 35 °C
Method: as §2, §3

S. aureus ATCC 6538 = experiment: MIC, twofold serial microdilution; type: cell-based; conditions: Staphylococcus aureus, ATCC6538; standard strain, 18 h, 35 °C
Method: as §2, §3

S. aureus NCTC 4163 = experiment: MIC, twofold serial microdilution; type: cell-based; conditions: Staphylococcus aureus, NCTC4163; standard strain, 18 h, 35 °C
Method: as §2, §3

[2] = system: S. epidermidis ATCC 12228; experiment: MIC, twofold serial microdilution; type: cell-based; conditions: Staphylococcus epidermidis, ATCC12228; standard strain, 18 h, 35 °C
Method: as §2, §3

[3] = system: S. epidermidis ATCC 35984; experiment: MIC, twofold serial microdilution; type: cell-based; conditions: Staphylococcus epidermidis, ATCC35984; standard strain, 18 h, 35 °C
Method: as §2, §3

[4] = system: S. epidermidis MRSE 403/11; experiment: MIC, hospital methicillin-resistant strain; type: cell-based; conditions: Staphylococcus epidermidis
Method: as §2, §3

[5] = system: S. epidermidis MRSE 404/11; experiment: MIC, hospital methicillin-resistant strain; type: cell-based; conditions: Staphylococcus epidermidis
Method: as §2, §3

[6] = system: S. epidermidis MRSE 405/11; experiment: MIC, hospital methicillin-resistant strain; type: cell-based; conditions: Staphylococcus epidermidis
Method: as §2, §3

[7] = system: S. epidermidis MRSE 406/11; experiment: MIC, hospital methicillin-resistant strain; type: cell-based; conditions: Staphylococcus epidermidis
Method: as §2, §3

[8] = system: S. epidermidis MRSE 407/11; experiment: MIC, hospital methicillin-resistant strain; type: cell-based; conditions: Staphylococcus epidermidis
Method: as §2, §3

[9] = system: S. epidermidis MRSE 409/11; experiment: MIC, hospital methicillin-resistant strain; type: cell-based; conditions: Staphylococcus epidermidis
Method: as §2, §3

[10] = system: S. epidermidis MRSE 411/11; experiment: MIC, hospital methicillin-resistant strain; type: cell-based; conditions: Staphylococcus epidermidis
Method: as §2, §3

[11] = system: S. epidermidis MRSE 412/11; experiment: MIC, hospital methicillin-resistant strain; type: cell-based; conditions: Staphylococcus epidermidis
Method: as §2, §3

[12] = system: S. epidermidis MRSE 413/11; experiment: MIC, hospital methicillin-resistant strain; type: cell-based; conditions: Staphylococcus epidermidis
Method: as §2, §3

[13] = system: S. epidermidis MRSE 422/11; experiment: MIC, hospital methicillin-resistant strain; type: cell-based; conditions: Staphylococcus epidermidis
Method: as §2, §3

staphylococci = experiment: MIC against staphylococci; type: cell-based; conditions: moderate activity
Method: as §2, §3

[14] = 50% protection of MT-4 cells from HIV-1 induced cytopathogenicity, MTT, 4-day incubation

SMILES | CC50 at 96 h [1] [µM] | MIC (B. cereus ATCC 11778) [µg/mL] | MIC (B. subtilis ATCC 6633) [µg/mL] | MIC (M. luteus ATCC 10240) [µg/mL] | MIC (M. luteus ATCC 9341) [µg/mL] | MIC (S. aureus ATCC 25923) [µg/mL] | MIC (S. aureus ATCC 29213) [µg/mL] | MIC (S. aureus ATCC 6538) [µg/mL] | MIC (S. aureus NCTC 4163) [µg/mL] | MIC [2] [µg/mL] | MIC [3] [µg/mL] | MIC [4] [µg/mL] | MIC [5] [µg/mL] | MIC [6] [µg/mL] | MIC [7] [µg/mL] | MIC [8] [µg/mL] | MIC [9] [µg/mL] | MIC [10] [µg/mL] | MIC [11] [µg/mL] | MIC [12] [µg/mL] | further results
CSCCCNC(=S)Nc1ccc(Cl)c([N+](=O)[O-])c1 [Compound 29, 1-(4-chloro-3-nitrophenyl)-3-[3-(methylsulfanyl)propyl]thiourea] | 33.7 | 8 (≈ 25 µM) | 16 (≈ 50 µM) | 32 (≈ 100 µM) | 16 (≈ 50 µM) | 16 (≈ 50 µM) | 16 (≈ 50 µM) | 16 (≈ 50 µM) | 16 (≈ 50 µM) | 16 (≈ 50 µM) | 16 (≈ 50 µM) | 32 (≈ 100 µM) | 32 (≈ 100 µM) | 32 (≈ 100 µM) | 32 (≈ 100 µM) | 32 (≈ 100 µM) | 32 (≈ 100 µM) | 32 (≈ 100 µM) | 32 (≈ 100 µM) | 32 (≈ 100 µM) | EC50 (HIV-1 IIIB; [14]): > 33.7 µM; MIC (E. faecalis ATCC 29212): 64 µg/mL (≈ 200 µM); MIC [13]: 32 µg/mL (≈ 100 µM); MIC range towards staphylococci (staphylococci): 8 to 16 µg/mL; melting point: 102 to 103.5 °C
O=[N+]([O-])c1cc(NC(=S)NC2CC3CCC2C3)ccc1Cl (centres unmarked) [Compound 24, 1-bicyclo[2.2.1]hept-2-yl-3-(4-chloro-3-nitrophenyl)thiourea] | 16 | 8 (≈ 24.6 µM) | 8 (≈ 24.6 µM) | 16 (≈ 49.1 µM) | 32 (≈ 98.2 µM) | 8 (≈ 24.6 µM) | 8 (≈ 24.6 µM) | 8 (≈ 24.6 µM) | 8 (≈ 24.6 µM) | 16 (≈ 49.1 µM) | 16 (≈ 49.1 µM) | 4 (≈ 12.3 µM) | 4 (≈ 12.3 µM) | 4 (≈ 12.3 µM) | 8 (≈ 24.6 µM) | 4 (≈ 12.3 µM) | 4 (≈ 12.3 µM) | 4 (≈ 12.3 µM) | 4 (≈ 12.3 µM) | 4 (≈ 12.3 µM) | EC50 (HIV-1 IIIB): > 16 µM; MIC [13]: 4 µg/mL (≈ 12.3 µM); MIC range towards staphylococci (staphylococci): 8 to 16 µg/mL; melting point: 94 to 96 °C
O=[N+]([O-])c1cc(NC(=S)Nc2ccccc2)ccc1Cl [Compound 23, 1-(4-chloro-3-nitrophenyl)-3-phenylthiourea] | 23 | 8 (≈ 26 µM) | 8 (≈ 26 µM) | 8 (≈ 26 µM) | 4 (≈ 13 µM) | 16 (≈ 52 µM) | 16 (≈ 52 µM) | 16 (≈ 52 µM) | 16 (≈ 52 µM) | 16 (≈ 52 µM) | 16 (≈ 52 µM) | 16 (≈ 52 µM) | 16 (≈ 52 µM) | 16 (≈ 52 µM) | 16 (≈ 52 µM) | 16 (≈ 52 µM) | 16 (≈ 52 µM) | 16 (≈ 52 µM) | 32 (≈ 104 µM) | 16 (≈ 52 µM) | EC50 (HIV-1 IIIB; [14]): > 23 µM; MIC (E. faecalis ATCC 29212): 16 µg/mL (≈ 52 µM); MIC [13]: 16 µg/mL (≈ 52 µM); MIC range towards staphylococci (staphylococci): 8 to 16 µg/mL; melting point: 163 to 165 °C
